One assay concerns Mus musculus. The assay is described as follows: Analgesic activity in ip dosed albino Swiss mouse assessed as nociceptive response measured after 60 mins by hot plate method. The class given is functional. Conditions: 1 h. On the technique in general: Thermal pain tests record how soon the animal reacts.
The subject of another assay is Rattus norvegicus. The assay is described as follows: Antiinflammatory activity in ip dosed rat carrageenan-induced foot paw edema model measured after 2 hrs by plethysmometric analysis. The class given is functional.
For assay [1], the target named is T1, Prostaglandin G/H synthase 1 (Ovis aries, UniProt P05979).
T1 sequence (P05979 whole entry): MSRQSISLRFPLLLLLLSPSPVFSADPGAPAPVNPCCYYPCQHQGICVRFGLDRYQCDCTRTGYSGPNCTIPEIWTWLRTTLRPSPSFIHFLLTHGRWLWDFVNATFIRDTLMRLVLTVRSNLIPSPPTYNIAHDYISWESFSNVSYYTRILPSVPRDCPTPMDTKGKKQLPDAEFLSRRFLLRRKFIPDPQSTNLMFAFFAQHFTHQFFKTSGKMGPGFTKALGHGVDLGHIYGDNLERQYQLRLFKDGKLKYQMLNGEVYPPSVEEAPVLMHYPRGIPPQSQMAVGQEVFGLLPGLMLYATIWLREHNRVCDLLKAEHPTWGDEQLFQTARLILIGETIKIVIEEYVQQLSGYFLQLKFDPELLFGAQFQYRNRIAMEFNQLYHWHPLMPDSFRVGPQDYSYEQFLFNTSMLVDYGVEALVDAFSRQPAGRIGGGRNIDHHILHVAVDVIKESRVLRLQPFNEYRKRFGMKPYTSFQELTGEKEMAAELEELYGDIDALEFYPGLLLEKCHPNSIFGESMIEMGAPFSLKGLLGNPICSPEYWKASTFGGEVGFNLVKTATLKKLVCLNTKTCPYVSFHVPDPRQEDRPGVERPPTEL
Nature of the assay: Inhibition of ovine COX1 using arachidonic acid as substrate preincubated for 5 mins followed by substrate addition by ELISA. (In general: ELISA stands for enzyme-linked immunosorbent assay.)

Some results are limits rather than exact numbers.

Regarding `COc1ccc(/C=N/NC(=O)CSc2nc3ccccc3c(=O)n2CCc2ccccn2)cc1OC`, the ED50 – broadly, the midpoint of the dose-response relation – in the assay with Mus musculus stood at 78.5 mg/kg; with Rattus norvegicus, 112 mg/kg. Take `O=C(CSc1nc2ccccc2c(=O)n1CCc1ccccn1)c1ccc(F)cc1`: the IC50 (as a rule, the concentration that gives 50% inhibition) in assay [1] was over 100 µM. Also, the ED50 with Mus musculus turned out to be 78.1 mg/kg; with Rattus norvegicus it was 91.2 mg/kg. As to `O=C(CSc1nc2ccccc2c(=O)n1CCc1ccccn1)NNS(=O)(=O)c1ccccc1`, the ED50 in the assay with Rattus norvegicus was over 200 mg/kg. Take `O=C(O)Cc1ccccc1Nc1c(Cl)cccc1Cl` [DICLOFENAC]: the ED50 amounted to 100 mg/kg with Mus musculus and 112 mg/kg in the assay on Rattus norvegicus. Take `COc1ccc(S(=O)(=O)NNC(=O)CSc2nc3ccccc3c(=O)n2CCc2ccccn2)cc1OC`: the ED50 in the assay on Rattus norvegicus was over 200 mg/kg.

In assay [1], `NNC(=O)CSc1nc2ccccc2c(=O)n1CCc1ccccn1` showed an IC50 of over 100 µM. In addition, the ED50 with Mus musculus worked out at 40.3 mg/kg; in the assay on Rattus norvegicus, 74.5 mg/kg. Take `O=C(CSc1nc2ccccc2c(=O)n1CCc1ccccn1)NCc1ccccc1`: in the assay on Rattus norvegicus, the ED50 was over 200 mg/kg. Compound `NC(=O)CSc1nc2ccccc2c(=O)n1CCc1ccccn1` came in with a 50% effective dose (ED50) in the assay with Rattus norvegicus of over 200 mg/kg. The same measure, in the same setting: the result for `COc1cc(/C=N/NC(=O)CSc2nc3ccccc3c(=O)n2CCc2ccccn2)cc(OC)c1OC` reads over 200 mg/kg; that for `O=C(CSc1nc2ccccc2c(=O)n1CCc1ccccn1)Nc1ccccc1`, over 200 mg/kg. As to `O=C(CSc1nc2ccccc2c(=O)n1CCc1ccccn1)N/N=C/c1ccccc1`, the ED50 in the assay on Mus musculus worked out at 54.5 mg/kg; with Rattus norvegicus it was 104 mg/kg. `O=C(CSc1nc2ccccc2c(=O)n1CCc1ccccn1)Nc1ccc(F)cc1` displayed an IC50 in assay [1] of over 100 µM. The ED50 in the assay with Mus musculus came out at 12.3 mg/kg; in the assay on Rattus norvegicus, 50.3 mg/kg. `O=C(CSc1nc2ccccc2c(=O)n1CCc1ccccn1)N/N=C/c1ccc(Cl)cc1`: the ED50 came out at 33.7 mg/kg in the assay with Mus musculus and 66.6 mg/kg with Rattus norvegicus. As for `CCOC(=O)CSc1nc2ccccc2c(=O)n1CCc1ccccn1`, the ED50 with Rattus norvegicus was over 200 mg/kg.

With `O=C(CSc1nc2ccccc2c(=O)n1CCc1ccccn1)c1ccccc1`, the ED50 with Rattus norvegicus is over 200 mg/kg.

Consider `O=C(CSc1nc2ccccc2c(=O)n1CCc1ccccn1)NNS(=O)(=O)c1ccc(Br)cc1`, for which the ED50 in the assay with Rattus norvegicus was over 200 mg/kg.

For the compound `Cc1ccc(-c2cc(C(F)(F)F)nn2-c2ccc(S(N)(=O)=O)cc2)cc1` [CELECOXIB], the ED50 with Mus musculus is 71 mg/kg. On to `COc1cc(NC(=O)CSc2nc3ccccc3c(=O)n2CCc2ccccn2)cc(OC)c1OC`, for which, in assay [1], the IC50 is over 100 µM. Also, the median effective dose (ED50) came out at 60.3 mg/kg in the assay with Mus musculus and 65.3 mg/kg in the assay on Rattus norvegicus.

In the assay on Rattus norvegicus, `COc1ccc(C(=O)CSc2nc3ccccc3c(=O)n2CCc2ccccn2)cc1` showed an ED50 of over 200 mg/kg. In turn, `COc1ccc(NC(=O)CSc2nc3ccccc3c(=O)n2CCc2ccccn2)cc1` showed an IC50 in assay [1] of over 100 µM. The ED50 was found to be 111 mg/kg in the assay with Mus musculus and 81.5 mg/kg in the assay with Rattus norvegicus. In the case of `COc1ccc(/C=N/NC(=O)CSc2nc3ccccc3c(=O)n2CCc2ccccn2)cc1`, the ED50 in the assay with Mus musculus is 50.3 mg/kg; in the assay on Rattus norvegicus it was 67.5 mg/kg. With `COc1cc(NC(=O)CCSc2nc3ccccc3c(=O)n2CCc2ccccn2)cc(OC)c1OC`, in assay [1], the IC50 was over 100 µM. For the same compound, the ED50 in the assay with Mus musculus came out at 80.3 mg/kg; in the assay with Rattus norvegicus it was 74.2 mg/kg. In assay [1], `O=c1c2ccccc2nc(S)n1CCc1ccccn1` displayed an IC50 of over 100 µM. In addition, the results for the ED50 in the assay with Mus musculus and in the assay with Rattus norvegicus were 98.2 mg/kg and 102 mg/kg, respectively.
